Data published in paper PMC4738305, “Metabolism and Disposition of Aditoprim in Swine, Broilers, Carp and Rats” (Scientific Reports, 2016).

Columns and labels:
[1] = Concentration and elimination of ADP and its metabolites in liver, kidney, muscle, fat/skin after oral ^3H-ADP for 7 d; assay type: in vivo, broilers; settings: broiler chicken, kidney, oral, 5 mg/kg b.w.
Protocol: (§1) A total of 36 animals from each species (swine n = 24) were randomly assigned to six equal treatment groups and administered a single daily dose of ^3 H-ADP at 5 mg/kg b. w. (0.1 Ci/g) through oral gavage for 7 consecutive days. All the animals were housed on the basis of their group in the cages or aquaria throughout the whole study period. A group of animals was slaughtered through exsanguination under diethyl ether inhalation of anesthesia in the period of 6 h, 1, 3, 7, 14, and 21 d after the administration. The blood samples were immediately collected into the heparinized tubes and was centrifuged at 1920 × g at 4 °C for 10 min to obtain the plasma. The tissues from the heart, liver, spleen, lung, kidney, craw (broilers), stomach, intestine, fat, skin, muscle, thymus, pancreas, bile, bladder, hair (scale for carp), genital gland, adrenal glands, swim bladder (carp), brain, lymph, and bursa (broilers) were carefully excised and collected. The tissues were thoroughly rinsed with the deionized water to remove the residuary blood, blotted to dryness, and finally to perform the homogenization. In order to avoid cross-contamination the dissecting instruments were washed during the tissue procurements. The blank tissues were collected in order to provide control matrices. The total radioactivity levels in each sample were determined through LSC. The samples extracted from the plasma, bile, and tissues of the liver, kidney, muscle, and fat/skin were analyzed through LC/MS-IT-TOF and v. ARC radiometric detection for metabolite profiling. The blank samples were used as control to determine the background radioactivity or the endogenous nondrug-related ions observed within respective matrices or their extracts.
(§2) The feces and tissues (2 g) were diluted with a mixture of methanol and chloroform (1:3, v:v; 2 mL/g homogenate). This procedure was carried out in a fume hood for the safety aspects. The pH value was adjusted to 9.0 with NH4OH. The mixture was vortexed and sonicated for 5 min and 10 min, respectively, and finally the samples were centrifuged at 7690 × g for 10 min. The supernatant was aspirated and then transferred into a new centrifuge tube. The obtained pellet was again subjected to the same process of vortex, ultrasonication, extraction, and centrifugation. The combined supernatant was concentrated under a stream of nitrogen in a water bath at 40 °C. The residue was reconstituted with 0.3 mL of methanol–water (1:9, v:v) before the injection into the LC-v. ARC/MS-IT-TOF system for analysis.
(§3) ADP and its metabolites in the prepared samples were determined with a v. ARC radiometric detector and a hybrid IT/TOF mass spectrometer connected to the HPLC system (Shimadzu Corp., Kyoto, Japan). The LC system was equipped with a solvent delivery pump (LC-20AD), an auto-sampler (SIL-20AC), a degasser (DGU-20 A 3), a photodiode array detector (SPD-M20A), a communication base module (CBM-20 A), and a column oven (CTO-20AC). The chromatographic separation was achieved by using an Agilent extend-C18 column (2.1 mm × 150 mm, 5 μm) with a gradient mobile phase of A (0.01% ammonia and 5 mM ammonium acetate in water) and B (methanol) at a flow rate of 0.2 mL/min. The column temperature was maintained at 35 °C. Various HPLC methods were performed because of the large number of different metabolites to be analyzed. For the porcine sample, method 1 started at 5% B and increased to 20% B over 35 min, then to 55% B by 60 min, followed by re-equilibration for another 10 min. For the remaining samples, method 2 started at 10% B and increased to 60% B over 30 min, subsequently was maintained at 60% B for an additional 10 min, and then changed to 90% B over 2 min and maintained for 2 min. Afterwards, a re-equilibration step (decreased to 10% B over 1 min and maintained at 10% B for additional 9 min) was followed. For each matrix, more than 98% of the radioactivity injected into the column was eluted during the running time of the gradient program. […]

[2] = Metabolite profiling of ADP in excreta, plasma and bile (LC-v.ARC/MS-IT-TOF); assay type: in vivo, swine; settings: for percentage of the individual metabolite compared with the total concentration of ADP-related: within 6 h after dosing; for Average percentage of ADP and its metabolites in total dose: Swine, Urine, single oral 5 mg/kg b.w. ^3H-ADP
Protocol: (§4) Animals (4 swine, 6 broilers, 6 carp, and 3 male and 3 female rats) were housed individually in clean, suspended wire-mesh metabolism cages, designed to separate the urine from the feces (carp were raised in individual aquaria). Each animal was weighed and assigned with a permanent identification number. A single dose of ^3 H-ADP (5 mg/kg b. w., 0.1 Ci/g) was administered via the oral gavage. Excreta were collected on ice at the pre-administration, in the period of 6, 12, and 24 h on day 1 d, and afterwards, intermittently in the period of 24 h up to 14 d. The piscine excreta were collected by changing and collecting raised water. The total volume or weight of each sample was measured and homogenized. The total radioactivity levels were determined through LSC for the recovery calculations. After the preparation, the samples were analyzed through LC/MS-IT-TOF with v. ARC radiometric detection (XenoBioticLaboratories, Inc.) for metabolite profiling. The pretreatment samples were used as controls to determine the background radioactivity or the endogenous nondrug-related ions observed within respective matrices or their extracts.
as §1
(§5) For metabolite profiling, the urine and feces samples from each animals were pooled proportionally to the excreted amount in each sampling period from 0 to 6 h, 6 h to 1 d, 1 to 3 d, 3 to 7 d, and 7 to 14 d post-dose, respectively. All samples were fully homogenized before the process. The pre-dose and blank samples served as the controls for determining the background radioactivity or the endogenous, nondrug-related ions observed within respective matrices or their extracts.
(§6) The urine samples (plasma, bile and raised water for carp) was subjected to solid-phase extraction with an Oasis MCX cartridge (3 mL, […]; Waters, Milford, MA, USA) for metabolite purification and enrichment. The pH value was adjusted to 2.8–3.2 by adding 1 M hydrochloric acid (HCl), and 2 mL of the sample was transferred into MCX cartridge, which was preconditioned with 3 mL of methanol and 3 mL of 0.1 mol/L HCl solution. The cartridge was washed with 3 mL of 0.1 mol/L HCl solution and was eluted with 5 mL of NH4OH/methanol (4:96, v:v). The effluent was concentrated to dryness under a stream of nitrogen at 40 °C. […]

[3] = as above; assay type: in vivo, broilers
Protocol: as §4, §1, §5, §6

[4] = Concentration and elimination of ADP and its metabolites in liver, kidney, muscle, fat/skin after oral ^3H-ADP for 7 d; assay type: in vivo, swine; settings: swine, oral, 5 mg/kg b.w.
Protocol: as §1, §2, §3

[5] = as above; assay type: in vivo, rats; settings: rat, liver, oral, 5 mg/kg b. w.
Protocol: as §1, §2, §3

[6] = Metabolite profiling of ADP in excreta, plasma and bile (LC-v.ARC/MS-IT-TOF); assay type: in vivo, rats
Protocol: as §4, §1, §5, §6

[7] = rats, within 3 d; cited from earlier work

Row | SMILES | concentration at 0.25 d [1] [ng/g] | percentage of the individual metabolite compared with the total concentration of ADP-related ([2]; Swine Urine) [%] | Average percentage of ADP and its metabolites in total dose [2] [%] | percentage of the individual metabolite compared with the total concentration of ADP-related ([3]; Broilers Extra (excreta), within 6 h after dosing) [%] | Average percentage of ADP and its metabolites in total dose ([3]; Broilers, Excreta, single oral 5 mg/kg b.w. ^3H-ADP) [%] | concentration at 0.25 d ([4]; liver) [ng/g] | percentage of the individual metabolite compared with the total concentration of ADP-related ([2]; Swine Plasma) [%] | concentration at 0.25 d ([4]; kidney) [ng/g] | concentration at 1 d ([4]; kidney) [ng/g] | concentration at 1 d ([4]; liver) [ng/g] | concentration at 0.25 d [5] [ng/g] | Average percentage of ADP and its metabolites in total dose ([6]; Rat, Urine, single oral 5 mg/kg b.w. ^3H-ADP) [%] | percentage of the individual metabolite compared with the total concentration of ADP-related ([6]; Rats Urine, within 6 h after dosing) [%] | oral dose recovered [7]
1 | COc1cc(Cc2cnc(N)nc2N)cc(O)c1N(C)C [A3, 3-OH-ADP] | 110 ± 90 | 9.7 | 5.4 | 3.5 | 6.4 | 940 ± 170 | – | – | – | – | – | – | – | –
2 | CNc1c(O)cc(C(O)c2cnc(N)nc2N)cc1OC (stereo not shown) [A4, 3-OH-4-methylamino-ADP] | – | 4.8 | 3.1 | – | – | 320 ± 30 | 4.6 | 520 ± 80 | 480 ± 260 | 270 ± 40 | – | – | – | –
3 | CNc1c(OC)cc(C(O)c2cnc(N)nc2N)cc1OC (stereo not drawn) [A5, 4-methylamino-α-OH-ADP] | – | 1.2 | 1.9 | – | – | 430 ± 40 | 1.6 | 710 ± 110 | 270 ± 150 | 260 ± 40 | – | – | – | –
4 | COc1cc(C(O)c2cnc(N)nc2N)cc(O)c1N(C)C (stereo not drawn) [A6, 3-OH-α-OH-ADP] | – | 6.4 | 3.7 | – | – | 360 ± 40 | 3.8 | 690 ± 100 | 60 ± 30 | – | 10 ± 10 | 0.5 | 3.1 | –
5 | CNc1c(O)cc(Cc2cnc(N)nc2N)cc1OC [A7, 4-methylamino-3-OH-ADP] | – | 1.9 | 1.8 | – | – | 790 ± 170 | – | – | – | 450 ± 90 | – | – | – | –
6 | COc1cc(C(O)c2cnc(N)nc2N)cc(OC)c1N(C)C (stereo not drawn) [A8, α-OH-ADP] | – | 1.4 | 1.0 | – | – | 20 | – | – | – | – | – | – | – | –
7 | COc1cc(Cc2cnc(N)nc2N)cc(OC)c1OC [TMP, trimethoprim] | – | – | – | – | – | – | – | – | – | – | – | – | – | more than 95 % of the oral dose
